Reference: patent publication US20260125382A1, “COMPOUNDS FOR INHIBITING OR DEGRADING CDK2 AND/OR CDK9 AND MEDICINAL USE THEREOF” (KOREA RESEARCH INSTITUTE OF CHEMICAL TECHNOLOGY, priority 2022, published 2026)

Tests used:
CDK2 = target: T1, CDK2 (Homo sapiens, UniProt P24941); assay: CDK protein degradation activity (Western blotting), CDK2; type: cell-based; conditions: MDA-MB-231 cells, 16 hours, Western blot
T1 construct: endogenous in cells; host or cells: MDA-MB-231
In short: (§1)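 CDK2 and CDK9 protein levels measured by Western blot with densitometry, using tubulin as loading reference. Cells were MDA-MB-231, exposed for 16 h to 100 nM, 1 μM or 10 μM compound or to DMSO.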

CDK9 = target: T2, CDK9 (Homo sapiens, UniProt P50750); assay: CDK protein degradation activity (Western blotting), CDK9; type: cell-based; conditions: MDA-MB-231 cells, 16 hours, Western blot
T2 construct: endogenous in cells; host or cells: MDA-MB-231
T2 sequence (P50750 whole entry): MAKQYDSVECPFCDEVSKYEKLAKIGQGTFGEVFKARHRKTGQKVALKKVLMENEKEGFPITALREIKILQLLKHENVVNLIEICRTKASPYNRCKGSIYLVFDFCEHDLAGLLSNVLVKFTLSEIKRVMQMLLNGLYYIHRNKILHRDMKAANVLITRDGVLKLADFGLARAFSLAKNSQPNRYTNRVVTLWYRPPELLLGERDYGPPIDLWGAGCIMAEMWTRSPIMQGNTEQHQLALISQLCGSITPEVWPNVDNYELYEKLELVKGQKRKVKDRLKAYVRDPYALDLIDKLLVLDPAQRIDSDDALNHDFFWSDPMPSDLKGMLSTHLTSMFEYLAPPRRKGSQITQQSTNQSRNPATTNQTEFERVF
In short: as §1

Enzyme degradation CDK2 (% remaining) @ 0.1 μM (CDK2) [%]	Enzyme degradation CDK2 (% remaining) @ 1 μM (CDK2) [%]	Enzyme degradation CDK2 (% remaining) @ 10 μM (CDK2) [%]	Enzyme degradation CDK9 (% remaining) @ 0.1 μM (CDK9)	Enzyme degradation CDK9 (% remaining) @ 1 μM (CDK9)	Enzyme degradation CDK9 (% remaining) @ 10 μM (CDK9)	Compound
20	0	0	0/0/0%	0/0/0%	0/0/0%	O=C1CCC(N2C(=O)c3ccc(N4CCC(CCN5CCN(c6ccc(Nc7ncnc8c7ncn8[C@H]7C[C@@H](NC(=O)Cc8ccccc8)C7)cc6)CC5)CC4)cc3C2=O)C(=O)N1 (stereo partly drawn) [Compound 327, N-((1s,3s)-3-(6-((4-(4-(2-(1-(2-(2,6-dioxopiperidin-3-yl)-1,3-dioxoisoindolin-5-yl)piperidin-4-yl)ethyl)piperazin-1-yl)phenyl)amino)-9H-purin-9-yl)cyclobutyl)-2-phenylacetamide]
40	50	40	0/0/0%	0/0/0%	0/0/0%	O=C1CC[C@H](N2C(=O)c3ccc(N4CC(C(=O)N5CCC(CCN6CCN(c7ccc(Nc8ncnc9c8ncn9C8CC(NC(=O)Cc9ccccc9)C8)cc7)CC6)CC5)C4)cc3C2=O)C(=O)N1 (stereo partly drawn) [Compound 328, N-((1s,3s)-3-(6-((4-(4-(2-(1-(1-(2-(2,6-dioxopiperidin-3-yl)-1,3-dioxoisoindolin-5-yl)azetidin-3-carbonyl)piperidin-4-yl)ethyl)piperazin-1-yl)phenyl)amino)-9H-purin-9-yl)cyclobutyl)-2-phenylacetamide]
50	50	60	10%	0%	0%	O=C1CC[C@H](N2C(=O)c3ccc(N4CC(C(=O)N5CCC(CN6CCN(c7ccc(Nc8ncnc9c8ncn9C8CC(NC(=O)Cc9ccccc9)C8)cc7)CC6)CC5)C4)cc3C2=O)C(=O)N1 (stereo partly drawn) [Compound 329, N-((1s,3s)-3-(6-((4-(4-((1-(1-(2-(2,6-dioxopiperidin-3-yl)-1,3-dioxoisoindolin-5-yl)azetidin-3-carbonyl)piperidin-4-yl)methyl)piperazin-1-yl)phenyl)amino)-9H-purin-9-yl)cyclobutyl)-2-phenylacetamide]
60	60	40	0/0/0%	0/0/0%	0/0/0%	O=C1CC[C@H](N2C(=O)c3ccc(N4CCC(C(=O)N5CCC(CN6CCN(c7ccc(Nc8ncnc9c8ncn9C8CC(NC(=O)Cc9ccccc9)C8)cc7)CC6)CC5)CC4)cc3C2=O)C(=O)N1 (stereo partly drawn) [Compound 330, N-((1s,3s)-3-(6-((4-(4-((1-(1-(2-(2,6-dioxopiperidin-3-yl)-1,3-dioxoisoindolin-5-yl)piperidin-4-carbonyl)piperidin-4-yl)methyl)piperazin-1-yl)phenyl)amino)-9H-purin-9-yl)cyclobutyl)-2-phenylacetamide]
50	30	30	30%	10%	0%	O=C1CC[C@H](N2C(=O)c3ccc(N4CC(C(=O)N5CCN(CC6CCN(c7ccc(Nc8ncnc9c8ncn9C8CC(NC(=O)Cc9ccccc9)C8)cc7)CC6)CC5)C4)cc3C2=O)C(=O)N1 (stereo partly drawn) [Compound 331, N-((1s,3s)-3-(6-((4-(4-((4-(1-(2-(2,6-dioxopiperidin-3-yl)-1,3-dioxoisoindolin-5-yl)azetidin-3-carbonyl)piperazin-1-yl)methyl)piperidin-1-yl)phenyl)amino)-9H-purin-9-yl)cyclobutyl)-2-phenylacetamide]
50	10	10	50%	0%	0%	O=C1CCC(N2C(=O)c3cc(F)c(N4CCC(N5CCN(c6ccc(Nc7ncnc8c7ncn8[C@H]7C[C@@H](NC(=O)Cc8ccccc8)C7)cc6)CC5)CC4)cc3C2=O)C(=O)N1 (stereo partly drawn) [Compound 333, N-((1s,3s)-3-(6-((4-(4-(1-(2-(2,6-dioxopiperidin-3-yl)-6-fluoro-1,3-dioxoisoindolin-5-yl)piperidin-4-yl)piperazin-1-yl)phenyl)amino)-9H-purin-9-yl)cyclobutyl)-2-phenylacetamide]
60	50	50	20%	10%	10%	O=C1CC[C@H](n2nnc3ccc(N4CCC(N5CCN(c6ccc(Nc7ncnc8c7ncn8[C@H]7C[C@@H](NC(=O)Cc8ccccc8)C7)cc6)CC5)CC4)cc3c2=O)C(=O)N1 [Compound 334, N-((1s,3s)-3-(6-((4-(4-(1-(3-(2,6-dioxopiperidin-3-yl)-4-oxo-3,4-dihydrobenzo[d][1,2,3]triazin-6-yl)piperidin-4-yl)piperazin-1-yl)phenyl)amino)-9H-purin-9-yl)cyclobutyl)-2-phenylacetamide]
20	10	10	70%	0%	0%	O=C1CC[C@H](N2C(=O)c3ccc(N4CCN(C5CC6(CCN(c7ccc(Nc8ncnc9c8ncn9[C@H]8C[C@@H](NC(=O)Cc9ccccc9)C8)cc7)CC6)C5)CC4)cc3C2=O)C(=O)N1 [Compound 335, N-((1s,3s)-3-(6-((4-(2-(4-(2-(2,6-dioxopiperidin-3-yl)-1,3-dioxoisoindolin-5-yl)piperazin-1-yl)-7-azaspiro[3.5]nonan-7-yl)phenyl)amino)-9H-purin-9-yl)cyclobutyl)-2-phenylacetamide]
100	0	0	100%	0%	0%	O=C1CC[C@H](N2C(=O)c3cc(F)c(N4CCN(C5CC6(CCN(c7ccc(Nc8ncnc9c8ncn9[C@H]8C[C@@H](NC(=O)Cc9ccccc9)C8)cc7)CC6)C5)CC4)cc3C2=O)C(=O)N1 [Compound 336, N-((1s,3s)-3-(6-((4-(2-(4-(2-(2,6-dioxopiperidin-3-yl)-6-fluoro-1,3-dioxoisoindolin-5-yl)piperazin-1-yl)-7-azaspiro[3.5]nonan-7-yl)phenyl)amino)-9H-purin-9-yl)cyclobutyl)-2-phenylacetamide]
